In test [1] the target is T1, Neuraminidase (Influenza A virus, UniProt B4URF0). More on the design: species or system H7N1.
Test [2] concerns the target T1, Neuraminidase. Further details: species or system H7N3.

T1 sequence (B4URF0 whole entry): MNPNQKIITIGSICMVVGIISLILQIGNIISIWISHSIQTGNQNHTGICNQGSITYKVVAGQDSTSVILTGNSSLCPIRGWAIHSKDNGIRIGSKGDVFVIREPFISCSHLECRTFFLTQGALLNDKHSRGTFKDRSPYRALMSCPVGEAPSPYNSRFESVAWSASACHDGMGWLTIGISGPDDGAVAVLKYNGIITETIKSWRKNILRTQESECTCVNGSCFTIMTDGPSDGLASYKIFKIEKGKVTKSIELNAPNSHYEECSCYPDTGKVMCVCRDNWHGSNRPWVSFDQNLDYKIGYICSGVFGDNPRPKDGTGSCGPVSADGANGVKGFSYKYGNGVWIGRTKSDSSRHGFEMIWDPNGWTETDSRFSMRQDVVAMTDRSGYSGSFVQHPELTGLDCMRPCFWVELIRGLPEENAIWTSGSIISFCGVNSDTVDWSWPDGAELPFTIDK

Turning to `C=CC(=O)N[C@@H]1[C@@H](NCC(C)C)CC(C(=O)O)=C[C@H]1OC(CC)CC`, the IC50 on Neuraminidase [1] came to 14.6 nM; at Neuraminidase [2], 28.1 nM.

Regarding `C=CC(=O)N[C@@H]1[C@@H](N)CC(C(=O)O)=C[C@H]1OC(CC)CC`, the IC50 on Neuraminidase [1] amounted to 31.8 nM; on Neuraminidase [2], 0.1 nM.

For the compound `C/C=C/C(=O)N[C@@H]1[C@@H](N)CC(C(=O)O)=C[C@H]1OC(CC)CC`, the IC50 worked out at 139000 nM at Neuraminidase [1] and 4510 nM against Neuraminidase [2].

Regarding `C/C=C/C(=O)N[C@@H]1[C@@H](N=[N+]=[N-])CC(C(=O)O)=C[C@H]1OC(CC)CC`, the IC50 was found to be 51600 nM on Neuraminidase [1] and 99300 nM on Neuraminidase [2].

Regarding `CCC(CC)O[C@@H]1C=C(C(=O)O)C[C@H](N=[N+]=[N-])[C@H]1NC(C)=O`, the IC50 against Neuraminidase [1] is 84.4 nM; at Neuraminidase [2], 2.2 nM.

As usually defined, the IC50 is the concentration that inhibits the measured activity by half. Read a low IC50 as inhibition by little substance.

The values above are taken from ChEMBL document CHEMBL1955717, “Synthesis and in vitro study of novel neuraminidase inhibitors against avian influenza virus” (Bioorg Med Chem, 2012).
